From patent US20030004172A1, “Fused pyrimidinone matrix metalloproteinase inhibitors” (priority 2001, published 2003)
Where two headings read alike, the source gives them in different places.

How the values were obtained:
[1] = target: MMP-13CD (catalytic domain of collagenase-3) (Homo sapiens, UniProt P45452); assay: Thiopeptolide substrate hydrolysis inhibition assay, MMP-13CD; assay type: biochemical
Excerpt: (§1) Thiopeptolide substrates show virtually no decomposition or hydrolysis at or below neutral pH in the absence of a matrix metalloproteinase enzyme.

[2] = target: MMP-3CD (catalytic domain of stromelysin-1) (Homo sapiens, UniProt P08254); assay: Thiopeptolide substrate hydrolysis inhibition assay, MMP-3CD; assay type: biochemical; settings: Table II; micromolar concentration; MES buffer pH 6.0
Chain of MMP-3CD (catalytic domain of stromelysin-1) (P08254 100-272 limits assumed): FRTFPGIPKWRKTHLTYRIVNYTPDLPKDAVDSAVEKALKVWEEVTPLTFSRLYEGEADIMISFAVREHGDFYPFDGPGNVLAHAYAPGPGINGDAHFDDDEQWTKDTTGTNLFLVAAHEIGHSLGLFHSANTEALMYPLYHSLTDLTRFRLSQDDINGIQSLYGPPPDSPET
Protocol: as §1
It should be appreciated that the assay buffer used with MMP-3CD is 50 mM N-morpholinoethanesulfonate (“MES”) at pH 6.0 rather than the HEPES buffer at pH 7.0 described above.

MMP-12CD = target: T1, MMP-12CD (Homo sapiens, UniProt P39900); assay: Thiopeptolide substrate hydrolysis inhibition assay, MMP-12CD; assay type: biochemical; settings: Table II; micromolar concentration; HEPES pH 7.0
T1 construct: 12CD
T1 sequence (P39900 106-263 limits assumed): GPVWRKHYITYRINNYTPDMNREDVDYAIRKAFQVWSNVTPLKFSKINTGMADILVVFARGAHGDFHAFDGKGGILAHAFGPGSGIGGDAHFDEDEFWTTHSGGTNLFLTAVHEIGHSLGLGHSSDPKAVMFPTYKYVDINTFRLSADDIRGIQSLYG
Excerpt: as §1

[3] = target: MMP-9FL (full-length Gelatinase B) (Homo sapiens, UniProt P14780); assay: Thiopeptolide substrate hydrolysis inhibition assay, MMP-9FL; assay type: biochemical; settings: Table II; micromolar concentration; HEPES pH 7.0
Chain of MMP-9FL (full-length Gelatinase B) (P14780 94-707, species assumed): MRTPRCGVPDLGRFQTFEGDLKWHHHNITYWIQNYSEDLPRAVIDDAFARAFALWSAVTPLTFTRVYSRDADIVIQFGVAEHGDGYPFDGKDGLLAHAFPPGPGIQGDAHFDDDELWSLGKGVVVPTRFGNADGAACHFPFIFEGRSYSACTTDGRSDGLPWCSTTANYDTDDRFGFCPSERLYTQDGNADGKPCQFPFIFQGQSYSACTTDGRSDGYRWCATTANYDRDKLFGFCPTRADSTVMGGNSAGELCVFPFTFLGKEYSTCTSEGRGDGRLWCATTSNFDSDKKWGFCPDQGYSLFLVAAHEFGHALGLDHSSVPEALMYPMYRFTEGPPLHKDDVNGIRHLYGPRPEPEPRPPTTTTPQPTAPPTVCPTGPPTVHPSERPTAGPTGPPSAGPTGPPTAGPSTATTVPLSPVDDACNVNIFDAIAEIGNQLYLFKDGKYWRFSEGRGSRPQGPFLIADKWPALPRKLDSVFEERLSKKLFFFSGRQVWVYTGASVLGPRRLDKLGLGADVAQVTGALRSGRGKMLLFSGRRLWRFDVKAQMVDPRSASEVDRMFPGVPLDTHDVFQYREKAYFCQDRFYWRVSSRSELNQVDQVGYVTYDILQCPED
Excerpt: as §1

[4] = target: T2, MMP-7FL (full-length matrilysin) (Homo sapiens, UniProt P09237); assay: Thiopeptolide substrate hydrolysis inhibition assay, MMP-7FL; assay type: biochemical; settings: Table II; micromolar concentration; HEPES pH 7.0
T2 sequence (P09237 95-267): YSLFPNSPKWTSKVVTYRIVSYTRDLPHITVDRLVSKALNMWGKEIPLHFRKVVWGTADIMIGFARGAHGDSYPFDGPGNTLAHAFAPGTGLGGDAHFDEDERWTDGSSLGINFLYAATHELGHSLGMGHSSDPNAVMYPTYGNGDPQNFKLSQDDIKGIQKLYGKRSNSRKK
Excerpt: as §1

[5] = target: T3, MMP-2FL (full length Gelatinase A) (Homo sapiens, UniProt P08253); assay: Thiopeptolide substrate hydrolysis inhibition assay, MMP-2FL; assay type: biochemical; settings: Table II; micromolar concentration; HEPES pH 7.0
T3 sequence (P08253 110-660): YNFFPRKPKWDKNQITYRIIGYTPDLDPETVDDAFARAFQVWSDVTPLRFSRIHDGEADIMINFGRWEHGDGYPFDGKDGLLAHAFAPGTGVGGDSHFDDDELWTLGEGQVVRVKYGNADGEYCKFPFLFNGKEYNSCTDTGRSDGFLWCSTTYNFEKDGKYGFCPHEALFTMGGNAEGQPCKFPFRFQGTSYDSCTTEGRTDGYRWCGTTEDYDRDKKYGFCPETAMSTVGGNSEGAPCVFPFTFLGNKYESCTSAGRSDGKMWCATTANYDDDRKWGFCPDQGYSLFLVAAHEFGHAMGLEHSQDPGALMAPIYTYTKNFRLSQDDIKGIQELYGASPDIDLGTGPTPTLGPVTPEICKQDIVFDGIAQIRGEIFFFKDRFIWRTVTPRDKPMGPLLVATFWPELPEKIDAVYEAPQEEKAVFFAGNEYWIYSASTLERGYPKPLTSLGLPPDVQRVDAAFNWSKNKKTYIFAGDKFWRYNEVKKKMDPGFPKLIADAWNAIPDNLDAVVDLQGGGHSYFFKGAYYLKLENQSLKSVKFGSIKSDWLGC
Excerpt: as §1

[6] = target: MMP-14CD (catalytic domain of MMP-14) (Homo sapiens, UniProt P50281); assay: Thiopeptolide substrate hydrolysis inhibition assay, MMP-14CD; assay type: biochemical; settings: Table II; micromolar concentration; HEPES pH 7.0
Excerpt: as §1

[7] = Table I, thiopeptolide substrate, HEPES pH 7.0, 22° C., read-out: MMP-13CD IC50
[8] = Table II, micromolar concentration, HEPES pH 7.0, read-out: IC50 MMP-13CD

Row | SMILES | IC50 [1, 7] [µM] | IC50 [1, 8] [µM] | melting point | also measured
1 | O=C(OCc1ccccc1)c1cc2c(=O)n(Cc3ccccc3)c(=O)[nH]c2s1 [Example 1, 3-Benzyl-2,4-dioxo-1,2,3,4-tetrahydro-thieno[2,3-d]pyrimidine-6-carboxylic acid benzyl ester] | 0.74 | 0.61 | 195 to 197 °C | IC50 [2]: 18 µM
2 | O=C(OCc1ccncc1)c1cc2c(=O)n(Cc3ccccc3)c(=O)[nH]c2s1 [Example 2, 3-Benzyl-2,4-dioxo-1,2,3,4-tetrahydro-thieno[2,3-d]pyrimidine-6-carboxylic acid pyridin-4-ylmethyl ester] | 0.31 | – | 248 to 250 °C | –
3 | O=C(NCc1ccccc1)c1cc2c(=O)n(Cc3ccccc3)c(=O)[nH]c2s1 [Example 3, 3-Benzyl-2,4-dioxo-1,2,3,4-tetrahydro-thieno[2,3-d]pyrimidine-6-carboxylic acid benzyl amide] | 30 | – | > 255 °C | –
4 | O=C(OCc1ccc(/C=C/c2ccccc2)cc1)c1cc2c(=O)n(Cc3ccccc3)c(=O)[nH]c2s1 [Example 4] | 16 | – | 247 to 249 °C | –
5 | Cc1c(C(=O)OCc2ccccc2)sc2[nH]c(=O)n(CCc3ccccc3)c(=O)c12 [Example 5, 5-Methyl-2,4-dioxo-3-phenylethyl-1,2,3,4-tetrahydro-thieno[2,3-d]pyrimidine-6-carboxylic acid benzyl ester] | 51 | – | 207 to 209 °C | –
6 | Cc1ccc(-n2c(=O)[nH]c3sc(C(=O)OCc4ccccc4)c(C)c3c2=O)cc1 [Example 7, 5-Methyl-2,4-dioxo-3-p-tolyl-1,2,3,4-tetrahydro-thieno[2,3-d]-6-carboxylic acid benzyl ester] | 10 | – | 267 to 269 °C | –
7 | Cn1c(=O)n(Cc2ccccc2)c(=O)c2cc(C(=O)OCc3ccccc3)sc21 [Example 9, 3-Benzyl-1-methyl-2,4-dioxo-1,2,3,4-tetrahydro-thieno[2,3-d]pyrimidine-6-carboxylic acid benzyl ester] | – | – | 143 to 145 °C | –
8 | O=C(OCc1ccncc1)c1cc2c(=O)n(Cc3ccc(Br)cc3)c(=O)[nH]c2s1 [Example 49, 3-(4-Bromo-benzyl)-2,4-dioxo-1,2,3,4-tetrahydro-thieno[2,3-d]pyrimidine-6-carboxylic acid pyridin-4-ylmethyl ester] | 0.26 | 0.26 | – | IC50 [2]: 23 µM
9 | CCn1c(=O)n(Cc2ccccc2)c(=O)c2cc(C(=O)OCc3ccccc3)sc21 [Example 73, 3-Benzyl-1-ethyl-2,4-dioxo-1,2,3,4-tetrahydro-thieno[2,3-d]pyrimidine-6-carboxylic acid benzyl ester] | > 100 | – | 147 to 148 °C | –
10 | COc1ccc(CNC(=O)c2cc3c(=O)n(CC#N)c(=O)n(C)c3s2)cc1 [Example 223, 3-Cyanomethyl-1-methyl-2,4-dioxo-1,2,3,4-tetrahydro-thieno[2,3-d]pyrimidine-6-carboxylic acid 4-methoxy-benzylamide] | – | – | 180 to 183 °C | –
11 | COC(=O)/C=C/Cn1c(=O)c2cc(C(=O)NCc3ccc(OC)cc3)sc2n(C)c1=O [Example 225, (E)-4-[6-(4-Methoxy-benzylcarbamoyl)-1-methyl-2,4-dioxo-1,4-dihydro-2H-thieno[2,3-d]pyrimidin-3-yl]-but-2-enoic acid methyl ester] | 0.225 | – | 169 to 171 °C | –
12 | CCCCNC(=O)NS(=O)(=O)c1ccc(Cn2c(=O)c3cc(C(=O)NCc4cccc(OC)c4)sc3n(C)c2=O)cc1 [Example 231a] | 0.00895 | 0.009 | – | IC50 [4]: 46 µM; IC50 [5]: 50 µM; IC50 [6]: 30 µM; IC50 [3]: 91 µM; IC50 [2]: 13 µM; IC50 (MMP-12CD): 30 µM
13 | COC(=O)c1ccc(Cn2c(=O)c3cc(C(N)=O)sc3n(C)c2=O)cc1C [Example 249a] | 0.64 | 0.64 | – | IC50 [4]: 30 µM; IC50 [5]: 30 µM; IC50 [6]: 30 µM; IC50 [3]: 30 µM
14 | Cn1c(=O)n(Cc2ccccc2)c(=O)c2cc(C(=O)OCc3ccncc3)sc21 [Example 303, 3-Benzyl-1-methyl-2,4-dioxo-1,2,3,4-tetrahydro-thieno[2,3-d]pyrimidine-6-carboxylic acid pyridin-4-ylmethyl ester] | 0.0036 | 0.0036 | – | IC50 [4]: 32 µM; IC50 [3]: 30 µM; IC50 [2]: 6 µM
15 | COc1cc(CNC(=O)c2cc3c(=O)n(CC4CCCCC4)c(=O)n(C)c3s2)ccn1 [Example 371, 3-Cyclohexylmethyl-1-methyl-2,4-dioxo-1,2,3,4-tetrahydro-thieno[2,3-d]pyrimidine-6-carboxylic acid (2-methoxy-pyridin-4-ylmethyl)-amide] | 0.22 | – | – | –
16 | COc1ccc(CNC(=O)c2cc3c(=O)n(CC#Cc4ccccc4)c(=O)n(C)c3s2)cc1 [Example 385, 1-Methyl-2,4-dioxo-3-(3-phenyl-prop-2-ynyl)-1,2,3,4-tetrahydro-thieno[2,3-d]pyrimidine-6-carboxylic acid 4-methoxy-benzylamide] | 0.007 | – | – | –

Now from value to molecule, other results behind:

Row | IC50 [1, 7] [µM] | IC50 [1, 8] [µM] | melting point | SMILES | also measured
17 | – | 0.0038 | – | COc1cccc(CNC(=O)c2cc3c(=O)n(Cc4ccc(CC(=O)O)cc4)c(=O)n(C)c3s2)c1 [Example 39, {4-[6-(3-Methoxy-benzylcarbamoyl)-1-methyl-2,4-dioxo-1,4-dihydro-2H-thieno[2,3-d]pyrimidin-3-ylmethyl]-phenyl}-acetic acid] | IC50 [2]: 16 µM; IC50 (MMP-12CD): 10 µM
18 | 0.0785 | 0.0785 | – | COc1ccc(CNC(=O)c2cc3c(=O)n(Cc4ccc(S(N)(=O)=O)cc4)c(=O)n(C)c3s2)cc1 [Example 217, 1-Methyl-2,4-dioxo-3-(4-sulfamoyl-benzyl)-1,2,3,4-tetrahydro-thieno[2,3-d]pyrimidine-6-carboxylic acid 4-methoxy-benzylamide] | IC50 [3]: 30 µM; IC50 [2]: 27 µM; IC50 (MMP-12CD): 30 µM
19 | 0.061 | – | 226 to 228 °C (dec.) | COc1ccc(CNC(=O)c2cc3c(=O)n(Cc4ccc(/C(N)=N/O)cc4)c(=O)n(C)c3s2)cc1 [Example 220, 3-[4-(N-Hydroxycarbamimidoyl)-benzyl]-1-methyl-2,4-dioxo-1,2,3,4-tetrahydro-thieno[2,3-d]pyrimidine-6-carboxylic acid 4-methoxy-benzylamide] | –
20 | 0.783 | – | 159 to 163 °C | COc1cccc(CNC(=O)c2cc3c(=O)n(CC#N)c(=O)n(C)c3s2)c1 [Example 224, 3-Cyanomethyl-1-methyl-2,4-dioxo-1,2,3,4-tetrahydro-thieno[2,3-d]pyrimidine-6-carboxylic acid 3-methoxy-benzylamide] | –
21 | 0.735 | – | – | COc1cccc(CNC(=O)c2cc3c(=O)n(Cc4ccc([N+](=O)[O-])nc4)c(=O)n(C)c3s2)c1 [Example 368, 1-Methyl-3-(6-nitro-pyridin-3-ylmethyl)-2,4-dioxo-1,2,3,4-tetrahydro-thieno[2,3-d]pyrimidine-6-carboxylic acid 3-methoxy-benzylamide] | –
22 | 1.17 | – | – | COc1cc(CNC(=O)c2cc3c(=O)n(Cc4ccc([N+](=O)[O-])nc4)c(=O)n(C)c3s2)ccn1 [Example 370, 1-Methyl-3-(6-nitro-pyridin-3-ylmethyl)-2,4-dioxo-1,2,3,4-tetrahydro-thieno[2,3-d]pyrimidine-6-carboxylic acid (2-methoxy-pyridin-4-ylmethyl)-amide] | –
23 | 0.66 | – | – | COc1cccc(CNC(=O)c2cc3c(=O)n(Cc4ccc(N)nc4)c(=O)n(C)c3s2)c1 [Example 384, 3-(6-Amino-pyridin-3-ylmethyl)-1-methyl-2,4-dioxo-1,2,3,4-tetrahydro-thieno[2,3-d]pyrimidine-6-carboxylic acid 3-methoxy-benzylamide] | –
